Assays:
[1] = system: IL-21 secretion from human CD4+ T cells; assay: Suppression of IL-21 secretion by activated Th17 cells (ALPHALISA); assay type: cell-based; conditions: for IC50: 120 h, human CD4+ T cells under Th17 stimulation, 5 days; for potency in suppressing IL-21 secretion, in words: human CD4+ T cells
From the text: IL-21 is a pro-inflammatory cytokine secreted by CD4^+ Th17 cells and is thought to serve as a T-cell growth factor playing overlapping roles with IL-2. This Example describes a study that measured the IC50 values of the indole compounds disclosed herein for suppressing IL-21 secretion from human CD4^+ T cells that had been treated with stimulatory conditions that gave rise to TH17 cells (see, e.g., Dobritsa et al., J Biomol Screen. 18(1):75-84 (2013)).
Human CD4^+ T cells were purchased from Lonza Walkersville Inc. (Walkersville, MD). DMSO was obtained from Sigma (St. Louis, MO). Greiner cell culture plates, Gibco DMEM cell culture medium, media supplements, and antibiotics, as well as DYNABEADS Human T-Activator CD3/CD28 and R&D Systems TGF-β, IL-1β and IL-23 and Invitrogen IL-6 cytokines, were purchased through Fisher Scientific (Pittsburgh, PA). ALPHALISA assay plates and the Human Interleukin-21 ALPHALISA kit was obtained from Perkin Elmer (Boston, MA).
Cell culture plates were pre-coated with test compounds in serial dilutions for generating a 10-point, 3-fold dose response curve with a top concentration of 1 μM or 100 nM. To do this, compounds were dissolved in DMSO and added to an ECHO qualified plate for transfer to the cell culture plate with the ECHO555. The indole compounds to be tested were dissolved in […] and wells were backfilled with DMSO so that all treatments received 0.1% DMSO final volume. Positive control (0% inhibition) wells, in which compounds were replaced with […], were included on each plate. At least 15×10^6 frozen CD4^+ T cells per plate of compounds were thawed in a 37° C. water bath, and the cells were washed twice with 10 mL of the complete medium (DMEM supplemented with 10% fetal bovine serum (FBS), 100 U/mL penicillin, and 100 μg/mL streptomycin), followed by centrifugation (250×g, 10 min). Cells were re-suspended to the desired density, and cultured in 384-well treated sterile cell culture plates in a total volume of 50 μL per well. Each plate included wells with induced and un-induced cells.
Induced cells were activated in the complete medium with DYNABEADS Human T-Activator CD3/CD28 at a bead-to-cell ratio of 1:2.5 and stimulated with the following cytokines: transforming growth factor-β (TGF-β, 5 ng/mL), IL-6 (20 ng/mL), IL-23 (20 ng/mL), and IL-1β (10 ng/mL).
Un-induced cells were left in complete medium with no additional supplements. Plates were incubated at 37° C., 5% CO2 for a total of 5 days. Upon completion of the 5 day incubation period, cells were spun down (1,000×g, 1 min) and supernatant was transferred to the ALPHALISA assay plate using the Mosquito HTS liquid handler (TTP Labtech Inc., Cambridge, MA).
IL-21 levels in cell supernatants and cell-free control samples were measured using the ALPHALISA assay kit from Perkin Elmer, following the manufacturer's instructions. The assay was run at room temperature in 384-well ALPHAPLATES (cat. 6005350; Boston, MA). Briefly, immediately after transferring the cell supernatant to the assay plate, anti-IL-21 acceptor beads were added with the CERTUS FLEX liquid handler (LEAP Technologies, Morrisville, NC). The plate was sealed, spun down and incubated for 30 minutes. After incubation, the seal was removed, anti-IL-21 biotinylated antibody was added with the CERTUS FLEX, and the plate was sealed again, spun down and incubated for 60 minutes. Next, the seal was removed, streptavidin-coated donor beads were added with the CERTUS FLEX, and the plate was sealed, spun down and incubated for another 60 minutes. Finally, the seal was removed and the plate was read using the ENVISION reader (Perkin Elmer, Boston, MA) set with an excitation filter of 680 nm and an emission filter of 615 nm. Two independent IL-21 standard dilution curves were run per plate with analyte provided in the ALPHALISA kit.
For estimation of the assay performance, Z′ values were calculated for each plate, comparing positive and negative controls. […]

[2] = Hepatocyte intrinsic clearance assay, human hepatocytes; assay type: in vitro ADME; conditions: male, cryopreserved pooled human hepatocytes; Human Hepatocytes, 1 μM test compound
From the text: The liver is an important organ in the body for drug metabolism. This Example describes hepatocyte intrinsic clearance assays using both human and mouse hepatocytes to evaluate the metabolic stability of the indole compounds disclosed herein. The parameters measured include t1/2 (half-life), CLint (intrinsic clearance), and EH (hepatic extraction ratio).
Testosterone (Lot FE111011-01) was obtained from Cerilliant (Round Rock, TX). 7-hydroxycoumarin (Lot 11631ED) was obtained from Sigma Aldrich (St. Louis, MO). Cryopreserved human hepatocytes pooled from ten donor males (X008001), cryopreserved male IRC/CD-1 mouse hepatocytes (M005052), INVITROGRO HI Medium (incubation), and INVITROGRO HT Medium (thawing) were obtained from Bioreclamation IVT (Baltimore, MD). All solvents were obtained from commercial sources and used without further purification.
Each test compound was prepared as a 1 mM stock solution in DMSO. A 2 μM solution of test compound and positive controls were prepared in INVITROGRO HI Medium (incubation). These solutions were pre-warmed in a sterile incubator set to maintain 37° C., 5% CO2, and 98% humidity. Cryopreserved hepatocytes were prepared at a concentration of 2×10^6 living cells/mL in incubation media and pre-warmed in the incubator. The compound solutions and hepatocyte mixtures were then combined at a ratio of 1:1 (v:v). The final volume of the reaction mixture was 750 μL, containing 1 μM test compound (10 μM for 7-hydroxycoumarin) and […]. The reaction mixture was placed in the incubator on a plate shaker. After 0, 15, 30, 60, 90, and 120 minutes of incubation, 100 μL of reaction mixtures were removed from the incubation plate and mixed with 150 μL of ice-cold acetonitrile in a designated well of a 96-well crash plate. The 96-well crash plate was placed on ice for 15 min, and samples were centrifuged (3,600 RPM, 10 min, 4° C.) to precipitate protein. The supernatants were diluted 1:1 (v:v) with water containing 0.15 μM verapamil and/or 1 μM tolbutamide (internal standards for positive and negative modes, respectively) in a 96-well shallow injection plate. This plate was sealed for LC-MS analysis. All measurements were done in duplicate.
The residual compound remaining (% R) was determined from LC-MS peak areas by comparison to the zero time point. Metabolic half-life (t1/2) and intrinsic clearance (CLint) values were calculated from the slope of the plot of ln (% R) vs. time and the concentration of hepatocytes present in the incubation. Percent remaining at 60 minutes was calculated by plugging in the 60 minute value into the slope equation generated by the percent remaining time points.
In vivo hepatic clearance CLH was calculated using the well stirred liver model according to the following equation:
[formula] where QH is the total liver blood flow, fu is unbound fraction of the drug, and CL′int is defined as follows: CL′int=CLint×(10^6 cells/g of liver weight)×(g liver weight/kg of body weight). In the first approximation, used in this study, fu=1.
Hepatic extraction ratio EH was calculated using the following equation:
[formula] Corresponding physiological parameters used in calculations for all species are shown below in Table 5.

Row | Compound | IC50 [1] [nM] | half-life at 1 μM [2] [h] | potency in suppressing IL-21 secretion, in words [1] | times more potent than ARI-087 ([1]; IL-21 secretion assay)
1 | COC(=O)c1csc(C(=O)c2c[nH]c3ccc(F)cc23)n1 [ARI-066, methyl 2-(5-fluoro-1H-indole-3-carbonyl)thiazole-4-carboxylate] | 48.6 | 0.117 |  | 
2 | Nc1nnc(-c2csc(C(=O)c3c[nH]c4cc(Cl)c(Cl)cc34)n2)o1 [ARI-120, (4-(5-amino-1,3,4-oxadiazol-2-yl)thiazol-2-yl)(5,6-dichloro-1H-indol-3-yl)methanone] | 0.3 | 15.3 | most potent | 
3 | CCC(=O)c1csc(C(=O)c2c[nH]c3cc(F)c(F)cc23)n1 [ARI-149, 1-(2-(5,6-difluoro-1H-indole-3-carbonyl)thiazol-4-yl)propan-1-one] | 30.3 | 2.2 |  | 
4 | CCC(=O)c1csc(C(=O)c2c[nH]c3ccc(Cl)cc23)n1 [ARI-067, 1-(2-(5-chloro-1H-indole-3-carbonyl)thiazol-4-yl)propan-1-one] | 6.3 | 5 |  | 
5 | COC(=O)c1csc(C(=O)c2c[nH]c3ccc(Cl)cc23)n1 [ARI-055, methyl 2-(5-chloro-1H-indole-3-carbonyl)thiazole-4-carboxylate] | 73.6 | 1.12 |  | 
6 | CCC(=O)c1csc(C(=O)c2c[nH]c3c(F)cccc23)n1 [ARI-140, 1-(2-(7-fluoro-1H-indole-3-carbonyl)thiazol-4-yl)propan-1-one] | 8.6 | 3.33 |  | 
7 | CCC(=O)c1csc(C(=O)c2c[nH]c3cc(F)ccc23)n1 [ARI-143, 1-(2-(6-fluoro-1H-indole-3-carbonyl)thiazol-4-yl)propan-1-one] | 18.8 | 2.57 |  | 
8 | CNC(=O)c1csc(C(=O)c2c[nH]c3ccc(Cl)cc23)n1 [ARI-049, 2-(5-chloro-1H-indole-3-carbonyl)-N-methylthiazole-4-carboxamide] | 10.1 | 3.88 |  | 
9 | Nc1nnc(-c2csc(C(=O)c3c[nH]c4ccccc34)n2)s1 [ARI-090, (4-(5-amino-1,3,4-thiadiazol-2-yl)thiazol-2-yl)(1H-indol-3-yl)methanone] | 8.4 | 2.19 |  | 
10 | CCC(=O)c1csc(C(=O)c2c[nH]c3ccc(F)cc23)n1 [ARI-087, 1-(2-(5-fluoro-1H-indole-3-carbonyl)thiazol-4-yl)propan-1-one] | 25.4 | 1.91 |  | 
11 | COC(=O)c1csc(C(=O)c2c[nH]c3ccccc23)n1 [ARI-001, ITE] | 38.2 | 0.13 |  | 
12 | Nc1nnc(-c2csc(C(=O)c3c[nH]c4c(F)cccc34)n2)o1 [ARI-118, (4-(5-amino-1,3,4-oxadiazol-2-yl)thiazol-2-yl)(7-fluoro-1H-indol-3-yl)methanone] | 0.8 | 15.4 | most potent | about 32 times
13 | O=C(c1nc(-c2nnco2)cs1)c1c[nH]c2ccccc12 [ARI-056, (4-(1,3,4-oxadiazol-2-yl)thiazol-2-yl)(1H-indol-3-yl)methanone] | 4.9 | 0.653 |  | 
14 | NCc1nc(-c2csc(C(=O)c3c[nH]c4c(F)cccc34)n2)no1 [ARI-146, (4-(5-(aminomethyl)-1,2,4-oxadiazol-3-yl)thiazol-2-yl)(7-fluoro-1H-indol-3-yl)methanone] | 13.4 | 6.23 |  | 
15 | NCc1nnc(-c2csc(C(=O)c3c[nH]c4c(F)cccc34)n2)o1 [ARI-145, (4-(5-(aminomethyl)-1,3,4-oxadiazol-2-yl)thiazol-2-yl)(7-fluoro-1H-indol-3-yl)methanone] | 46.9 | 2.83 |  | 
16 | CNC(=O)c1csc(C(=O)c2c[nH]c3ccc(F)cc23)n1 [ARI-065, 2-(5-fluoro-1H-indole-3-carbonyl)-N-methylthiazole-4-carboxamide] | 14 | 1.52 |  | 
17 | Cc1noc(-c2csc(C(=O)c3c[nH]c4ccccc34)n2)n1 [ARI-031, (1H-indol-3-yl)(4-(3-methyl-1,2,4-oxadiazol-5-yl)thiazol-2-yl)methanone] | 42.6 | 16.1 | among the least potent | 
18 | CCC(=O)c1csc(C(=O)c2c[nH]c3cccc(F)c23)n1 [ARI-142, 1-(2-(4-fluoro-1H-indole-3-carbonyl)thiazol-4-yl)propan-1-one] | 209 | 1.43 | least active in suppressing IL-21 secretion | 
19 | Cc1nnc(-c2csc(C(=O)c3c[nH]c4ccccc34)n2)o1 [ARI-060, (1H-indol-3-yl)(4-(5-methyl-1,3,4-oxadiazol-2-yl)thiazol-2-yl)methanone] | 110 | 4.55 | among the least potent | 
20 | Nc1nnc(-c2csc(C(=O)c3c[nH]c4ccc(F)cc34)n2)o1 [ARI-148, (4-(5-amino-1,3,4-oxadiazol-2-yl)thiazol-2-yl)(5-fluoro-1H-indol-3-yl)methanone] | 5.9 | 4.7 |  | 
21 | Nc1nnc(-c2csc(C(=O)c3c[nH]c4ccccc34)n2)o1 [ARI-083, (4-(5-amino-1,3,4-oxadiazol-2-yl)thiazol-2-yl)(1H-indol-3-yl)methanone] | 0.3 | 10.8 | most potent | 

Reference: patent US11891386B2, “Indole compounds and their use” (ARIAGEN, INC., priority 2017, dated 2024)
